system: Complex I; assay: Complex I activity in in vitro assays (literature, Fang/Casida); type: biochemical; conditions: ratio of IC50 values
Text: Novel lead compounds were identified through the screening of natural product-like combinatorial libraries. Separation of the constituents of this resin provided the major components rotenone (1, FIG. 2) and deguelin (7, FIG. 3) along with minor constituents, including dehydrodeguelin (8), oxadehydrodeguelin (9), lonchocarpusone (10), 4-hydroxylonchocarpene (11), 4-hydroxy-3-methoxylonchocarpene (12), stilbenes 13-15, and isoflavones 16-18 (FIG. 3) among others. […] Despite the diversity in these bridging units, all of the compounds (7-18) inhibited Complex I activity in in vitro assays (Fang, N.; Casida, J. E. J. Nat. Prod. 1999, 62, 205-210; Fang, N.; et al. Chem. Res. Toxicol. 1997, 10, 853-858). […] Given this effect, it was envisioned that screening a benzopyran-based combinatorial library wherein this “bridge” unit was varied (i.e. structure 19, FIG. 3) might lead to the identification of interesting structure activity relationships (SAR), and potentially to new lead compounds in this series.

For `COc1cc2c(cc1OC)[C@@H]1C(=O)c3ccc4c(c3O[C@@H]1CO2)C=CC(C)(C)O4` [deguelin], the “fold more active than lonchocarpusone” value was about 500 fold.

system: Complex I; assay: not given; conditions: natural products from Cubé resin; cited from earlier work

First: COc1cc2c(cc1OC)[C@@H]1C(=O)c3ccc4c(c3O[C@@H]1CO2)C=CC(C)(C)O4 [deguelin]
Second: COc1cc(OC)c(C2COc3c(ccc4c3C=CC(C)(C)O4)C2=O)cc1OC (centres unmarked) [lonchocarpusone]
The IC50 of the first is 480-fold lower: 6.9 nM for the first, 3300 nM for the second. The first is the more potent here.

molecular target: NADH:ubiquinone oxidoreductase (Complex I) (Bos taurus, UniProt P03887+P17694+P42026); assay: inhibitory potency for NADH:ubiquinone oxidoreductase activity in vitro using bovine heart electron transport particles; type: biochemical; conditions: bovine heart electron transport particles
Sequence (P03887 whole entry): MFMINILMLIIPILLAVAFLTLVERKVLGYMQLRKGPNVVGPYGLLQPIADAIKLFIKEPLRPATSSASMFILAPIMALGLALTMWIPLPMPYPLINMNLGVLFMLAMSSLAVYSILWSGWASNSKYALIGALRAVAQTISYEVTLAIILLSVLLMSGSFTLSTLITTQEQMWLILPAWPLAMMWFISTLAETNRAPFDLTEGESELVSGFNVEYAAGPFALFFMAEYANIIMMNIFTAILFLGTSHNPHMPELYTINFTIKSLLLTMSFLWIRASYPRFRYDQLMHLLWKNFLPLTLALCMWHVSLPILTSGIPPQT
Sequence (P42026 38-216): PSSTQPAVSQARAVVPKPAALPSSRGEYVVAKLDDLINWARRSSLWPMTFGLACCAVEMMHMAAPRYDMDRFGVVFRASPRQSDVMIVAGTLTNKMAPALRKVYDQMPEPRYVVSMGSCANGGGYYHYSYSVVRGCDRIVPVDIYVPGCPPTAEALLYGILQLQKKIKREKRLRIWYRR
Sequence (P17694 34-463): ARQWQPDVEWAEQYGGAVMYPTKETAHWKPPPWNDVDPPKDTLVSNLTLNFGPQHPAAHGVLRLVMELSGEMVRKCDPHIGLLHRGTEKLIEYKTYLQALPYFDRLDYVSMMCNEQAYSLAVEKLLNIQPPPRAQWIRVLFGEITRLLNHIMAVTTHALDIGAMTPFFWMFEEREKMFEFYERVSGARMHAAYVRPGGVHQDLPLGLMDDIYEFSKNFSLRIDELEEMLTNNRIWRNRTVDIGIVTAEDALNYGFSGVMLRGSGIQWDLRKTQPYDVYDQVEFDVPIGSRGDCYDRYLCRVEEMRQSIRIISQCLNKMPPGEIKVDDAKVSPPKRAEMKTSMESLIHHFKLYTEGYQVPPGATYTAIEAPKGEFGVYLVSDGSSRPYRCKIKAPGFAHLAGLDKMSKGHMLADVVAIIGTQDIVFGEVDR
Experimental: This primary library was screened for inhibitory potency against NADH:ubiquinone oxidoreductase activity as described below. […] As described below, a series of focused libraries were then synthesized using a combination of solid and solution phase chemistry in an attempt to evaluate particular structural sub-regions (denoted I-IV in FIG. 9) of the lead structure, thus allowing structure activity relationships to be developed.
(§1) SAR optimization was carried out on each of the four regions (I-IV) of interest guided by the inhibitory potency for NADH:ubiquinone oxidoreductase activity in vitro using bovine heart electron transport particles (see Singer (Singer, T. P. (1974). In Methods of Biochemical Analysis (Glick, D. ed., Wiley New York), 22, pp. 123-175) for details).
as §1, with “FIG. 15 is a graphical summary of structure activity trends observed for benzopyran-based inhibitors of NADH:ubiquinone oxidoreductase. SAR” for “SAR”, “T.P.” for “T. P.”

First: COc1ccc(COC(=O)c2ccc3c(c2)C=CC(C)(C)O3)cc1OC [Compound 42]
Second: COc1cc(COC(=O)c2ccc3c(c2)C=CC(C)(C)O3)cc(OC)c1OC [Compound 55]
The IC50 of the first is 4-fold higher: 220 nM for the first, 55 nM for the second.

First: COc1cc(COC(=O)c2ccc3c(c2)CCC(C)(C)O3)cc(OC)c1OC [Compound 140]
Second: COc1cc(CC(=O)c2ccc3c(c2)CCC(C)(C)O3)cc(OC)c1OC [Compound 165]
The IC50 of the first is 2.2-fold higher: 53 nM for the first, 24 nM for the second. The second is the more potent here.

Compared with `COc1cc(CC(=O)c2ccc3c(c2)C=CC(C)(C)O3)cc(OC)c1OC` [Compound 158], `C=C(Cc1cc(OC)c(OC)c(OC)c1)c1ccc2c(c1)C=CC(C)(C)O2` [Compound 163] is 2.1-fold lower in IC50: 39 nM for the first, 19 nM for the second.

Compared with `C=C(Cc1cc(OC)c(OC)c(OC)c1)c1ccc2c(c1)CCC(C)(C)O2` [Compound 167], `COc1cc(CC(=C(Cl)Cl)c2ccc3c(c2)CCC(C)(C)O3)cc(OC)c1OC` [Compound 168] is 150-fold higher in IC50: 18 nM for the first, 2700 nM for the second.

`COc1cc(CC(=C(F)F)c2ccc3c(c2)CCC(C)(C)O3)cc(OC)c1OC` [Compound 169] and `COc1cc(CSc2ccc3c(c2)C=CC(C)(C)O3)cc(OC)c1OC` [Compound 178] are within 1.5-fold of each other in IC50: 48 nM for the first, 43 nM for the second.

same assay, conditions: relative to parent/lead compound

In the case of `COc1cc(CC(=O)c2ccc3c(c2)CCC(C)(C)O3)cc(OC)c1OC` [Compound 165], the “inhibitory activity” value is reported as “almost twice as active as the parent olefin”.

Source: patent US7410998B2, “Inhibitors of NADH:ubiquinone oxidoreductase” (The Scripps Research Institute, priority 2000, dated 2008)
